Measurements published in patent US20260327233A1, “Heteroaryl Compounds as Ligand Directed Degraders of IRAK4” (Celgene Corporation, priority 2023, published 2026).
Counter-ions that a name gives are not always drawn.

Tests used:
IRAK4 [1] = biological target: T1, IRAK4 (Homo sapiens, UniProt Q9NWZ3); assay: IRAK4 PhosphoSens Biochemical Assay (BIOCHEM); conditions: IRAK4 1 nM; ATP and Sox conjugated peptide substrate AQT0326; pH 7.5; room temperature; 240 minutes
T1 sequence (Q9NWZ3 1-460): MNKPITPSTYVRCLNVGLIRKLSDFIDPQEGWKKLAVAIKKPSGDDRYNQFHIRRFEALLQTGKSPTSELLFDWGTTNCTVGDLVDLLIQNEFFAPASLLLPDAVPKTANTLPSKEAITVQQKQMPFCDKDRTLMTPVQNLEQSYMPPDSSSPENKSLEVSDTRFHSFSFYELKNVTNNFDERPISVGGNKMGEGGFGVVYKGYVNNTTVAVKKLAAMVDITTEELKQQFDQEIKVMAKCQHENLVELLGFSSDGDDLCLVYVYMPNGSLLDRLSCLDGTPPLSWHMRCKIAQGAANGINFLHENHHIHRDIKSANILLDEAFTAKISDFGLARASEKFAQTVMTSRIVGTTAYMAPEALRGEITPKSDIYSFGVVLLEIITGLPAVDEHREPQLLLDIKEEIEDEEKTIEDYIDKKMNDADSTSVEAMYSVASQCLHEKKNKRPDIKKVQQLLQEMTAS
Protocol: The PhosphoSens® biochemical assay was performed as described by the vendor (AssayQuant Technologies Inc. Marlborough, MA). A 1.25× stock solution of IRAK4 (PV4002, ThermoFisher Scientific, Waltham, MA) and a 5× stock solution of ATP and Sox conjugated peptide substrate, AQT0326 (CSKS-AQT0326B, AssayQuant Technologies), were prepared in 1× kinase reaction buffer consisting of 50 mM HEPES, pH 7.5, 0.01% Brij-35, 0.5 mM EGTA, 20 mM MgCl2 and 1 mM DTT. 10 μL of the ATP and substrate solution mix, for a final concentration of 200 µM ATP and […] peptide substrate, was added to a Corning 3574 384-well, white, non-binding surface microtiter plate containing 0.5 μL of serially diluted test compounds prepared in DMSO. The reactions were started with the addition of 40 μL of the enzyme solution, for a final IRAK4 concentration of 1 nM, and monitored every 71 seconds for 240 minutes at λEX 360/λEM 485 in a BioTek Synergy H4 plate reader (Agilent Technologies, Santa Clara, CA) at room temperature. The initial linear portions of the progress curves were fit according to a linear equation to yield the slopes and converted to % inhibition based on a value of 100% activity for the no inhibitor treated control. IC50 values of each compound were obtained by fitting the % inhibition-compound concentration curves using Dotmatics software (Dotmatics, Bishops Stortford, Hertfordshire, England),

IRAK4 [2] = biological target: T1, IRAK4; assay: ALE THP1 HTRF (IRAK4 HTRF in THP1 cell lysate, Cisbio HTRF kit); format: cell-based; set-up: THP1 Homogeneous Time Resolved Fluorescence (ALE THP1 HTRF) Procedure; endogenous in cells; host or cells: THP1; conditions: anti-IRAK4 d2 / anti-IRAK4 k antibodies
Protocol: Cell culture media was prepared in a tissue culture hood in a sterile environment by adding 10% FBS and 1% Penicillin Streptomycin to 500 mL no phenol red RPMI 1640 media. The media was filtered through a Nalgene Bottle Top Filter and stored at 4° C.
For Homogenous Time Resolved Fluorescence (HTRF) assays, a Cisbio HTRF kit was used, which included: Lysis Buffer #1 4×, Blocking Reagent #3 100×, 20× Antibody 1 (Anti-IRAK4 d2), 20× Antibody 2 (Anti-IRAK4 k), and Detection Buffer.
4× Lysis Buffer was stored at 4° C. For use as 1× Lysis buffer, the 4× solution was diluted with de-ionized water (distilled water, Gibco Cat. #15230279) and 100× Blocking Reagent in a 1:3:0.04 volume ratio.
20× Antibody Solution aliquots were stored at −80° C. and the Detection Buffer was stored at 4° C. For use as a 1× Antibody Solution, the 20× Antibody Solution aliquot was diluted with Detection Buffer in a 1:19 volume ratio.
Cells were lysed at room temperature for 45 min with shaking. A BCA protein assay was performed and normalization was conducted to the desired total protein concentration with 1× lysis buffer. Next, 1× Antibody Solutions were prepared by adding 380 μL Detection Buffer to 20 μL 20× Antibody Solution aliquots and mixing well. 1× Antibody Solutions were combined 1:1 and briefly vortexed. For control wells, 20 μL 1× anti IRAK4-k Antibody Solution was saved. The 384-well plate (ProxiPlate-384 Plus, Perkin Elmer Cat. #6008289) was loaded by adding 4 μL of the mixed Antibody Solution to empty wells using a single channel repeater. Using a multi-channel repeater, 16 μL lysate was added per well, and any bubbles that were formed were popped with 20 μL pipette tips and Kimwipe edges. In column 10, triplicates of each control were prepared. In wells A10, B10, and C10, buffer control was prepared by adding 16 μL Lysis Buffer and 4 μL Detection Buffer. In wells D10, E10, and F10, cryptate control was prepared by adding 16 μL Lysis Buffer, 2 μL Detection Buffer, and 2 μL 1× anti-IRAK4-k Antibody Solution. In wells G10, H10, and 110, a negative control was prepared by adding 16 μL Lysis Buffer and 4 μL mixed Antibody Solution. The plate was sealed with a clear seal and covered with an aluminum lid. The plate was spun down at 800 g for 5 min and incubated in the dark at room temperature overnight. The next day, the plate was spun down at 800 g for 5 min. The samples were analyzed by a plate reader (Envision, PerkinElmer) using the Desnor 384 HTRF program.

SMILES	IC50 (IRAK4 [1]) [nM]	EC50 (IRAK4 [2]) [nM]	ALE THP1 HTRF YMIN (IRAK4 [2]) [%]
CN(c1ccc2c(c1)CN(C1CCC(=O)NC1=O)C2=O)C1CCN(C[C@H]2CC[C@H](n3cc(NC(=O)c4cnn5ccc(N6C[C@H](N)C[C@@H](F)C6)nc45)c(C(F)F)n3)CC2)CC1 (stereo partly drawn) [Compound P-34]	< 0.5	6	9
N[C@@H]1C[C@@H](F)CN(c2ccn3ncc(C(=O)Nc4cn([C@H]5CC[C@H](C(=O)N6CCN(c7ccc8c(c7)C(=O)N(C7CCC(=O)NC7=O)C8=O)CC6)CC5)nc4C(F)(F)F)c3n2)C1 (stereo partly drawn) [Compound P-13, 5-[(3R,5R)-3-Amino-5-fluoro-1-piperidyl]-N-[1-[4-[4-[2-(2,6-dioxo-3-piperidyl)-1,3-dioxo-isoindolin-5-yl]piperazine-1-carbonyl]cyclohexyl]-3-(trifluoromethyl)pyrazol-4-yl]pyrazolo[1,5-a]pyrimidine-3-carboxamide]	< 0.5	8	24
N[C@@H]1C[C@@H](F)CN(c2ccn3ncc(C(=O)Nc4cn([C@H]5CC[C@H](C(=O)N6CCN(c7ccc8c(c7)C(=O)N(C7CCC(=O)NC7=O)C8=O)CC6)CC5)nc4C(F)F)c3n2)C1 (stereo partly drawn) [Compound P-15]	< 0.5	8	18
N#Cc1nn([C@H]2CC[C@H](CN3CCC(c4ccc5c(c4)C(=O)N(C4CCC(=O)NC4=O)C5)CC3)CC2)cc1NC(=O)c1cnn2ccc(N3CCNCC3)nc12 (stereo partly drawn) [Compound P-9]	1.4	> 10000	78
N#Cc1nn(C2CCC(C(=O)N3CCN(c4ccc5c(c4)C(=O)N(C4CCC(=O)NC4=O)C5)CC3)CC2)cc1NC(=O)c1cnn2ccc(N3C[C@H](N)C[C@@H](F)C3)nc12 (stereo partly drawn) [Compound P-18]	< 0.5	> 10000	69
N#Cc1nn(C2CCC(C(=O)N3CCC(c4ccc5c(c4)C(=O)N(C4CCC(=O)NC4=O)C5)CC3)CC2)cc1NC(=O)c1cnn2ccc(N3CCNCC3)nc12 (stereo not drawn) [Compound P-10]	1.2	> 10000	73
C[C@@H]1CN(c2ccn3ncc(C(=O)Nc4cn([C@H]5CC[C@H](C(=O)NC6CCN(c7ccc8c(c7)CN(C7CCC(=O)NC7=O)C8=O)CC6)CC5)nc4C(F)F)c3n2)C[C@H](C)O1 (stereo partly drawn) [Compound P-33]	9.4	24	68
N#Cc1nn(C2CCC(C(=O)N3CCN(c4ccc5c(c4)C(=O)N(C4CCC(=O)NC4=O)C5)CC3)CC2)cc1NC(=O)c1cnn2ccc(N3CCNCC3)nc12 (stereo not drawn) [Compound P-2]	15.3	> 10000	63
N#Cc1nn(C2CCC(C(=O)N3CCC(c4ccc5c(c4)C(=O)N(C4CCC(=O)NC4=O)C5=O)CC3)CC2)cc1NC(=O)c1cnn2ccc(N3CCNCC3)nc12 (stereo not drawn) [Compound P-12]	0.5	4280	66
N[C@@H]1C[C@@H](F)CN(c2ccn3ncc(C(=O)Nc4cn([C@H]5CC[C@H](C(=O)NC6CCN(c7ccc8c(c7)CN(C7CCC(=O)NC7=O)C8=O)CC6)CC5)nc4C(F)F)c3n2)C1 (stereo partly drawn) [Compound P-24]	< 0.5	4	11
CN(C[C@H]1CC[C@H](n2cc(NC(=O)c3cnn4ccc(N5C[C@H](N)C[C@@H](F)C5)nc34)c(C(F)F)n2)CC1)[C@H]1CC[C@H](Nc2cccc3c2C(=O)N(C2CCC(=O)NC2=O)C3=O)CC1 (stereo partly drawn) [Compound P-37]	< 0.5	20	12
N[C@@H]1C[C@@H](F)CN(c2ccn3ncc(C(=O)Nc4cn([C@H]5CC[C@H](CN6CCN(c7ccc8c(c7)C(=O)N(C7CCC(=O)NC7=O)C8=O)CC6)CC5)nc4C(F)F)c3n2)C1 (stereo partly drawn) [Compound P-26]	< 0.5	6	29
N[C@@H]1C[C@@H](F)CN(c2ccn3ncc(C(=O)Nc4cn([C@H]5CC[C@H](C(=O)NC6CCN(c7ccc8c(c7)C(=O)N(C7CCC(=O)NC7=O)C8=O)CC6)CC5)nc4C(F)F)c3n2)C1 (stereo partly drawn) [Compound P-19]	< 0.5	7	14
Cc1c(NC(=O)c2cnn3ccc(N4C[C@H](N)C[C@@H](F)C4)nc23)cnn1[C@H]1CC[C@H](C(=O)NC2CCN(c3ccc4c(c3)C(=O)N(C3CCC(=O)NC3=O)C4=O)CC2)CC1 (stereo partly drawn) [Compound P-28]	> 1	> 10000	>95
N#Cc1nn([C@H]2CC[C@H](C(=O)N3CCN(c4ccc5c(c4)CN(C4CCC(=O)NC4=O)C5=O)CC3)CC2)cc1NC(=O)c1cnn2ccc(N3CCNCC3)nc12 (stereo partly drawn) [Compound P-4]	3.2	> 10000	94
N[C@@H]1C[C@@H](F)CN(c2ccn3ncc(C(=O)Nc4cn([C@H]5CC[C@H](C(=O)NC6CCN(c7ccc8c(c7)C(=O)N(C7CCC(=O)NC7=O)C8)CC6)CC5)nc4C(F)F)c3n2)C1 (stereo partly drawn) [Compound P-25]	< 0.5	7	11
N[C@@H]1C[C@@H](F)CN(c2ccn3ncc(C(=O)Nc4cn([C@H]5CC[C@H](C(=O)N6CCN(c7ccc8c(c7)C(=O)N(C7CCC(=O)NC7=O)C8)CC6)CC5)nc4C(F)F)c3n2)C1 (stereo partly drawn) [Compound P-21]	< 0.5	5	18
N#Cc1nn([C@H]2CC[C@H](C(=O)N3CCN(c4ccc5c(c4)C(=O)N(C4CCC(=O)NC4=O)C5=O)CC3)CC2)cc1NC(=O)c1cnn2ccc(N3CCNCC3)nc12 (stereo partly drawn) [Compound P-1, N-(3-cyano-1-((1r,4r)-4-(4-(2-(2,6-dioxopiperidin-3-yl)-1,3-dioxoisoindolin-5-yl)piperazine-1-carbonyl)cyclohexyl)-1H-pyrazol-4-yl)-5-(piperazin-1-yl)pyrazolo[1,5-a]pyrimidine-3-carboxamide hydrochloride]	8.6	67	30
N#Cc1nn(C2CCC(C(=O)N3CCN(c4ccc5c(c4)C(=O)N(C4CCC(=O)NC4=O)C5=O)CC3)CC2)cc1NC(=O)c1cnn2ccc(N[C@@H]3CCCC[C@@H]3N)nc12 (stereo partly drawn) [Compound P-7]	< 0.5	> 10000	74
